# Like-named read-outs stand apart in the source and are kept apart here.
# Key:
# [1] = molecular target: T1, recombinant human KAT-II (kynurenine aminotransferase II) (Homo sapiens, UniProt Q8N5Z0); test: Lineweaver-Burk analysis, same fluorescent assay; type: biochemical
# T1 construct: gene AADAT; recombinant, purchased from R&D Systems (Bio-Techne)
# Protocol: Lineweaver-Burk analysis, same fluorescent assay on recombinant human KAT-II (kynurenine aminotransferase II) | competitive inhibition constant (Ki) for herbacetin and (-)-Epicatechin was calculated
# [2] = molecular target: T1, recombinant human KAT-II (kynurenine aminotransferase II); test: microplate fluorescent kynurenine aminotransferase assay coupled to glutamate dehydrogenase; type: biochemical
# T1 sequence (Q8N5Z0 30-425): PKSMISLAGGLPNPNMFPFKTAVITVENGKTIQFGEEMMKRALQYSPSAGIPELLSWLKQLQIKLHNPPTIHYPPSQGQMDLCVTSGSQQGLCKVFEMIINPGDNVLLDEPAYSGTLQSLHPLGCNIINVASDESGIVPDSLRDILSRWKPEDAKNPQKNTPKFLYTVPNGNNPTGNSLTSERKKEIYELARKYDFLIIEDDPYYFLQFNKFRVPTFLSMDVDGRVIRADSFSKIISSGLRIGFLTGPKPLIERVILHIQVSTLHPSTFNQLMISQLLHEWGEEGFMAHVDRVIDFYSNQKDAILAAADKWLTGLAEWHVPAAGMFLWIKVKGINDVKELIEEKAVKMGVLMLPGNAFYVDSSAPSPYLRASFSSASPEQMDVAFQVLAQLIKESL
Ki [1] [µM],IC50 [2] [µM],"IC50 ([2]; 1 mM L-KYN, 50 µM α-ketoglutaric acid, 5 µM PLP, pH 7.5, 30 min pre-incubation at room temperature, irreversible (binds PLP), covalent, non-competitive, error printed as 1.83) [µM]",Compound
9.23 ± 0.39,8.76 ± 0.76,,Oc1cc(O)c2c(c1)O[C@H](c1ccc(O)c(O)c1)[C@H](O)C2 [(-)-Epicatechin]
7.64 ± 0.46,5.98 ± 0.18,,O=c1c(O)c(-c2ccc(O)cc2)oc2c(O)c(O)cc(O)c12 [herbacetin]
,,0.0279 ± 0.00181,"N[C@H]1Cc2ccccc2N(O)C1=O [PF-04859989, reference compound]"

# — PMC11768104, “Identification of Two Flavonoids as New and Safe Inhibitors of Kynurenine Aminotransferase II via Computational and In Vitro Study” (Pharmaceuticals, 2025)
